Measurements: article PMC9416004, “A Versatile Class of 1,4,4-Trisubstituted Piperidines Block Coronavirus Replication In Vitro” (Pharmaceuticals, 2022)
Where two headings read alike, the source gives them in different places.

How the values were obtained:
[1] = test system: human embryonic lung (HEL) fibroblast cells; details: mock-infected HEL cells; microscopically visible alterations in cell morphology
[2] = in vitro; details: human
[3] = test system: HCoV-229E; assay: Cytopathic effect (CPE) reduction assay with HCoV-229E in HEL cells; format: cell-based, human coronavirus 229E; details: for EC50: Human coronavirus 229E, 120 h; for Selectivity Index MTS: ratio of CC50 to EC50-MTS; for Selectivity Index MTS / Selectivity Index Microscopy: only values of 10 or higher shown; for Selectivity Index Microscopy: ratio of MCC to EC50-microscopy
[4] = molecular target: SARS-CoV-2 nsp5 main protease (M^pro) (Severe acute respiratory syndrome coronavirus 2, UniProt P0DTD1); assay: FRET-based M^pro enzymatic assay; format: biochemical; details: for IC50 on SARS-CoV-2 M^pro enzyme activity: 80 nM nsp5, 5 μM Dabcyl-KTSAVLQSGFRKM-Edans-NH2 substrate, mean ± SEM (N = 3)
Procedure: Serial dilutions of the compounds were incubated with purified nsp5 protein in the presence of substrate (Dabcyl-KTSAVLQ↓SGFRKM-Edans-NH2), and peptide cleavage was followed by an increase in fluorescence. The compounds’ IC50 values were determined by Hill curve fitting. Values are the mean ± SEM (N = 3).
After transforming the pGEX-6P-1 plasmid in E. coli BL21 DE3 gold, nsp5 production was stimulated by overnight induction with 250 μM IPTG at a temperature of 17 °C. After centrifugation, the bacteria were resuspended in buffer consisting of: 50 mM Tris pH 8; 300 mM NaCl; 5 mM MgSO4; 1 mM PMSF; 10 μg/mL DNAse I; 0.25 mg/mL Lysozyme; 0.1%Triton X-100; and 10% glycerol. The cells were lysed by three cycles of sonication and centrifugation. The nsp5 protein was bound to Co-NTA agarose beads and eluted in lysis buffer containing 250 mM of imidazole. Next, the protein product was concentrated on a Vivaspin 20 centrifugal concentrator (10 kDa cut-off; GE Healthcare) and imidazole was removed by dialysis. Finally, the purified nsp5 was stored at −80 °C with 50% glycerol.
M^pro enzymatic assay. The fluorescence resonance energy transfer (FRET)-based protease assay was performed in black 384-well plates. Briefly, serial dilutions of the compounds were incubated with 80 nM nsp5 protein and 5 μM peptide substrate (Dabcyl-KTSAVLQ↓SGFRKM-Edans-NH2; Genscript) in buffer consisting of: 20 mM HEPES pH 6.5; 120 mM NaCl; 0.4 mM EDTA; 4 mM dithiothreitol; and 10% glycerol. The final DMSO content was 0.5%. Cleavage of the substrate was monitored for 40 min by measuring the increasing fluorescence in a Tecan Safire 2 plate reader (wavelength settings: excitation at 335 nm and emission at 493 nm). For each condition, enzyme activity was derived from the slope for the linear part of the curve and expressed relative to the activity in the condition receiving no compound. To determine the IC50 values, GraphPad Prism software was used to plot the % of enzyme activity against compound concentration and then fit the curves according to the equation Y = 100/(1 + (X/IC50)^HillSlope).

[5] = in vitro; details: human; remark: listed apart in the source
[6] = test system: HCoV-229E; assay: One-cycle time-of-compound addition (TOA) assay with HCoV-229E in HEL cells; format: cell-based, human coronavirus 229E
[7] = test system: SARS-CoV-2; assay: RT-qPCR-based SARS-CoV-2 viral load reduction assay in A549-AT cells; format: cell-based; details: for Antiviral activity EC99: 100-fold reduction in viral RNA copies in supernatant at day 3 p.i.; for EC90: Severe acute respiratory syndrome coronavirus 2, 72 h, 10-fold reduction in viral RNA copies in supernatant at day 3 p.i., read-out: Antiviral activity EC90
[8] = molecular target: SARS-CoV-2 nsp14 N7-MTase (Severe acute respiratory syndrome coronavirus 2, UniProt P0DTD1); assay: Radioactive filter-binding MTase assay, nsp14; format: biochemical; details: compound concentration of 200 µM
[9] = molecular target: SARS-CoV-2 nsp10/nsp16 2'O-MTase (Severe acute respiratory syndrome coronavirus 2, UniProt P0DTD1); assay: Radioactive filter-binding MTase assay, nsp10/nsp16; format: biochemical; details: compound concentration of 200 µM
[10] = HCoV-229E-infected HEL cells, protection against virus-induced CPE by MTS cell viability assay, five days at 35 °C, read-out: Antiviral EC50 MTS
[11] = HCoV-229E-infected HEL cells, protection against virus-induced CPE by microscopic scoring, five days at 35 °C, read-out: Antiviral EC50 Microscopy
[12] = compound added at 8 h p.i., HEL cells lysed at 16 h p.i., 33 15 µM, GC376 25 µM, GS-441524 20 µM, K22 15 µM

SMILES	Cytotoxicity MCC (minimal cytotoxic concentration) [1]	CC50 [2]	EC50 [3, 10]	EC50 [3, 11]	IC50 [4]	Antiviral activity EC99 [7]	EC90 [7]	Selectivity Index MTS [3]	Selectivity Index Microscopy [3]	further results
COC(=O)C[C@H](NC(=O)OC(C)(C)C)C(=O)N(Cc1ccccc1)C1(C(=O)NCc2ccccc2)CCN(Cc2ccccc2)CC1 [Compound 1]	>100 µM	> 100 µM	> 100 µM	> 100 µM	161 ± 35 µM	–	–	–	–	Antiviral EC50 MTS ([3]; HCoV-229E-infected HEL cells, protection against virus-induced CPE by MTS cell viability assay, five days at 35 °C): no activity; IC50 on SARS-CoV-2 M^pro enzyme activity [4]: only marginal activity
COC(=O)C[C@H](NC(=O)OCc1ccccc1)C(=O)N(Cc1ccccc1)C1(C(=O)NCc2ccccc2)CCN(Cc2ccccc2)CC1 [Compound 33]	>100 µM	> 100 µM	3.3 ± 0.4 µM	3 ± 0.1 µM	64 ± 8 µM	14 µM	9.3 µM	>30	>33	CC50 [5]: 90 µM; inhibition of viral RNA synthesis [6, 12]: losing some activity
COC(=O)C[C@H](NC(=O)OCc1ccccc1)C(=O)N(Cc1ccc(F)cc1)C1(C(=O)NCc2ccccc2)CCN(Cc2ccccc2)CC1 [Compound 34]	81 µM	–	3.4 ± 0.4 µM	3.1 ± 0.1 µM	38 ± 5 µM	13 µM	8 µM	22	26	inhibition at 200 µM [8]: 80%
CC(C)(C)OC(=O)N[C@@H](Cc1ccccc1)C(=O)N(Cc1ccc(F)cc1)C1(C(=O)NCc2ccccc2)CCN(Cc2ccccc2)CC1 [Compound 45]	50 µM	4.4 ± 0.8 µM	1.1 ± 0.2 µM	0.85 ± 0.07 µM	15 ± 2 µM	–	–	–	–	–
CC(C)(C)OC(=O)N[C@@H](Cc1ccccc1)C(=O)N(Cc1ccccc1)C1(C(=O)NCc2ccccc2)CCN(Cc2ccccc2)CC1 [Compound 46]	≥100 µM	75 µM	4.5 ± 0.2 µM	7.4 ± 1.3 µM	22 ± 2 µM	–	–	17	≥14	–
Cc1ccc(CC(NC(=O)OC(C)(C)C)C(=O)N(Cc2ccccc2)C2(C(=O)NCc3ccccc3)CCN(Cc3ccccc3)CC2)cc1 (centres unmarked) [Compound 52, Tert-butyl(1-(benzyl(1-benzyl-4-benzylcarbamoylpiperidin-4-yl)amino)-1-oxo-3-(p-tolyl)propan-2-yl)carbamate]	≥100 µM	–	4.7 ± 0.6 µM	6.6 ± 1.8 µM	14 ± 4 µM	3.9 µM	1.7 µM	>21	≥15	–
CC(C)(C)OC(=O)NC(Cc1ccccc1)C(=O)N(Cc1ccccc1)C1(C(=O)NCc2ccccc2)CCN(Cc2ccc(F)cc2)CC1 (centres unmarked) [Compound 60, Tert-butyl(1-(benzyl(4-benzylcarbamoyl-1-(4-fluorobenzyl)piperidin-4-yl)amino)-1-oxo-3-phenylpropan-2-yl)carbamate]	≥100 µM	–	4 ± 0.1 µM	4.5 ± 0.2 µM	68 ± 21 µM	5.2 µM	2.2 µM	>25	–	inhibition at 200 µM [9]: 80%
CC(C)(C)OC(=O)NC(Cc1ccccc1)C(=O)N(Cc1ccccc1)C1(C(=O)NCc2ccccc2)CCN(Cc2ccc(Cl)cc2)CC1 (centres unmarked) [Compound 61, Tert-butyl(1-(benzyl(4-benzylcarbamoyl-1-(4-chlorobenzyl)piperidin-4-yl)amino)-1-oxo-3-phenylpropan-2-yl)carbamate]	>100 µM	> 100 µM	30 ± 7 µM	36 ± 9 µM	–	–	–	–	–	–
COc1ccc(CN2CCC(C(=O)NCc3ccccc3)(N(Cc3ccccc3)C(=O)C(Cc3ccccc3)NC(=O)OC(C)(C)C)CC2)cc1 (centres unmarked) [Compound 62, Tert-butyl(1-(benzyl(4-benzylcarbamoyl-1-(4-methoxybenzyl)piperidin-4-yl)amino)-1-oxo-3-phenylpropan-2-yl)carbamate]	40 µM	28 µM	4.3 ± 0.4 µM	5.9 ± 1.8 µM	–	–	–	–	–	–
CC(C)(C)OC(=O)NC(Cc1ccccc1)C(=O)N(Cc1ccccc1)C1(C(=O)NCc2ccccc2)CCN(Cc2ccc([N+](=O)[O-])cc2)CC1 (centres unmarked) [Compound 63, Tert-butyl(1-(benzyl(4-benzylcarbamoyl-1-(4-nitrobenzyl)piperidin-4-yl)amino)-1-oxo-3-phenylpropan-2-yl)carbamate]	≥100 µM	> 100 µM	77 ± 9 µM	82 ± 15 µM	196 ± 39 µM	–	–	–	–	IC50 on SARS-CoV-2 M^pro enzyme activity [4]: only marginal activity
CCOC(=O)[C@H]1O[C@@H]1C(=O)N[C@@H](CC(C)C)C(=O)NCCC(C)C [Compound E64d]	–	–	–	–	–	–	–	–	–	inhibition of viral RNA synthesis ([6]; compound addition delayed until 4 h p.i., HEL cells lysed at 16 h p.i., E64d 15 µM, bafilomycin 0.00625 µM): 46%
O=C(N/C(=C\c1ccccc1)C(=O)N1CCC(O)(c2ccc(Br)cc2)CC1)c1ccccc1 [Compound K22, (Z)-N-[3-[4-(4-bromophenyl)-4-hydroxypiperidin-1-yl]-3-oxo-1-phenylprop-1-en-2-yl]benzamide, reference compound]	50 µM	28 ± 3 µM	3.6 ± 0.6 µM	2.6 ± 0.5 µM	–	–	–	–	19	inhibition of viral RNA synthesis [6, 12]: 100%
CC(C)C[C@H](NC(=O)OCc1ccccc1)C(=O)N[C@@H](C[C@@H]1CCNC1=O)C(O)S(=O)(=O)[O-].[Na+] (some centres unmarked) [GC376]	–	–	–	–	–	–	–	–	–	inhibition of viral RNA synthesis ([6]; […], 33 15 µM, GC376 25 µM, GS-441524 20 µM, K22 15 µM): ~ 90%
N#C[C@@]1(c2ccc3c(N)ncnn23)O[C@H](CO)[C@@H](O)[C@H]1O [GS-441524, reference compound]	>100 µM	–	2.3 ± 0.2 µM	3.5 µM	–	4.6 µM	3.2 µM	>43	>29	inhibition of viral RNA synthesis [6, 12]: ~ 90%
CO/C1=C\C(C)=C\[C@@H](C)[C@@H](O)[C@@H](C)C/C(C)=C/C=C/[C@H](OC)[C@@H]([C@@H](C)[C@@H](O)[C@H](C)[C@@]2(O)C[C@@H](O)[C@H](C)[C@@H](C(C)C)O2)OC1=O [bafilomycin]	–	–	–	–	–	–	–	–	–	inhibition of viral RNA synthesis [6]: 9%
